Where a SMILES comes first, the peptide text is derived from it. [ ]: non-standard residue; d: D form. The star is where a group is joined. Tle = CC(C)(C)[C@H](N)C(=O)O; Hexanoyl = CCCCCC(=O)*; Aib = CC(C)(N)C(=O)O; Acm = CC(=O)NC* A value given as a limit tells only on which side of the number the result lay.

Test system in one series: not listed separately
As to the kind of experiment: Stability in human plasma assessed as parent compound remaining after 24 hrs. It is filed as ADME, cell-free. Conditions: read-out: Stability.
For `CC(=O)N[C@@H](Cc1ccccc1)C(=O)N[C@@H](CCC(N)=O)C(=O)N[C@@H](CO)C(=O)N[C@@H](CCCCN)C(=O)N1CCC[C@@H]1C(=O)N[C@@H](CC(N)=O)C(=O)N[C@H](C(=O)N[C@@H](Cc1cnc[nH]1)C(=O)N[C@H](C(=O)N[C@@H](CC(=O)O)C(=O)N[C@@H]1CSSC[C@@H](C(=O)N[C@@H](CCCNC(=N)N)C(=O)N[C@@H](CC(C)C)C(=O)N[C@@H](C)C(=O)N[C@@H](C)C(=O)N[C@@H](CCCCN)C(=O)N[C@@H](CC(C)C)C(N)=O)NC(=O)[C@H](Cc2ccccc2)NC(=O)[C@H](Cc2ccc(O)cc2)NC1=O)C(C)(C)C)C(C)C`, the remaining at 24 h is 49.3%.

`CCN1C(=O)CC(SC[C@H](NC(=O)[C@H](CC(C)C)NC(=O)[C@H](CCCCN)NC(=O)[C@H](C)NC(=O)C(C)(C)NC(=O)[C@H](CC(C)C)NC(=O)[C@H](CCCNC(=N)N)NC(=O)[C@H](CCC(=O)O)NC(=O)[C@H](Cc2ccccc2)NC(=O)[C@H](Cc2ccc(O)cc2)NC(=O)CNC(=O)[C@H](Cc2cnc[nH]2)NC(=O)[C@@H](NC(=O)[C@H](Cc2cnc[nH]2)NC(=O)[C@@H](NC(=O)[C@H](CC(N)=O)NC(=O)[C@H]2CCCN2C(=O)[C@H](CCCCN)NC(=O)[C@H](CO)NC(=O)[C@H](CCC(N)=O)NC(=O)[C@H](Cc2ccccc2)NC(C)=O)C(C)C)C(C)C)C(N)=O)C1=O` (stereo partly drawn): the remaining at 24 h is 18.6%.

In the case of `CCCCCC(=O)N[C@@H](Cc1ccccc1)C(=O)N[C@@H](CCC(N)=O)C(=O)N[C@@H](CO)C(=O)N[C@@H](CCCCN)C(=O)N1CCC[C@@H]1C(=O)N[C@@H](CSCNC(C)=O)C(=O)N[C@H](C(=O)N[C@@H](Cc1cnc[nH]1)C(=O)N[C@H](C(=O)N[C@@H](CC(=O)O)C(=O)N[C@H](C)C(=O)N[C@@H](Cc1ccc(O)cc1)C(=O)N[C@@H](Cc1ccccc1)C(=O)N[C@@H](CCC(=O)O)C(=O)N[C@@H](CCCNC(=N)N)C(=O)N[C@@H](CC(C)C)C(=O)NC(C)(C)C(=O)N[C@@H](C)C(=O)N[C@@H](CCCCN)C(=O)N[C@@H](CC(C)C)C(N)=O)C(C)(C)C)C(C)C` (Hexanoyl-FQSK[dP]C(Acm)VH[Tle]D[dA]YFERL[Aib]AKL-NH2), the remaining at 24 h fell in the range of 90.1 to 93%.

As to `CC(C)C[C@H](NC(=O)[C@H](CCCCN)NC(=O)[C@H](C)NC(=O)C(C)(C)NC(=O)[C@H](CC(C)C)NC(=O)[C@H](CCCNC(=N)N)NC(=O)[C@H](CCC(=O)O)NC(=O)[C@H](Cc1ccccc1)NC(=O)[C@H](Cc1ccc(O)cc1)NC(=O)[C@@H](C)NC(=O)[C@H](CC(=O)O)NC(=O)[C@@H](NC(=O)[C@H](Cc1cnc[nH]1)NC(=O)[C@@H](NC(=O)[C@H](CC(N)=O)NC(=O)[C@H]1CCCN1C(=O)[C@H](CCCCN)NC(=O)[C@H](CO)NC(=O)[C@H](CCC(N)=O)NC(=O)[C@H](Cc1ccccc1)NS(=O)(=O)c1ccc2ccccc2c1)C(C)C)C(C)(C)C)C(N)=O`, the remaining at 24 h was determined as 105%.

`CC(=O)N[C@@H](Cc1ccccc1)C(=O)N[C@@H](CCC(N)=O)C(=O)N[C@@H](CO)C(=O)N[C@@H](CCCCN)C(=O)N(CC(=O)N[C@@H](CC(N)=O)C(=O)N[C@H](C(=O)N[C@@H](Cc1cnc[nH]1)C(=O)N[C@H](C(=O)N[C@@H](CC(=O)O)C(=O)NCC(=O)N[C@@H](Cc1ccc(O)cc1)C(=O)N[C@@H](Cc1ccccc1)C(=O)N[C@@H](CCC(=O)O)C(=O)N[C@@H](CCCNC(=N)N)C(=O)N[C@@H](CC(C)C)C(=O)NC(C)(C)C(=O)N[C@@H](C)C(=O)N[C@@H](CCCCN)C(=O)N[C@@H](CC(C)C)C(N)=O)C(C)C)C(C)C)C1CCCCC1`: the remaining at 24 h worked out at 17.4%.

Turning to `CC(=O)N[C@@H](Cc1ccccc1)C(=O)N[C@@H](CCC(N)=O)C(=O)N[C@@H](CO)C(=O)N[C@@H](CCCCN)C(=O)N1CCC[C@@H]1C(=O)N[C@@H](CC(N)=O)C(=O)N[C@H](C(=O)N[C@@H](Cc1cnc[nH]1)C(=O)N[C@H](C(=O)N[C@@H](CC(=O)O)C(=O)N[C@H](C)C(=O)N[C@@H](Cc1ccc(O)cc1)C(=O)N[C@@H](Cc1ccccc1)C(=O)N[C@@H](CCC(=O)O)C(=O)N[C@@H](CCCNC(=N)N)C(=O)N[C@@H](CC(C)C)C(=O)NC(C)(C)C(=O)N[C@H]1CSSCCNC(=O)[C@H](CC(C)C)NC(=O)[C@H](CCCCN)NC1=O)C(C)(C)C)C(C)C`, the remaining at 24 h came to 16%.

On to `CCN1C(=O)CC(SC[C@H](NC(=O)[C@H](CC(C)C)NC(=O)[C@H](CCCCN)NC(=O)[C@H](C)NC(=O)C(C)(C)NC(=O)[C@H](CC(C)C)NC(=O)[C@H](CCCNC(=N)N)NC(=O)[C@H](CCC(=O)O)NC(=O)[C@H](Cc2ccccc2)NC(=O)[C@H](Cc2ccc(O)cc2)NC(=O)CNC(=O)[C@H](CO)NC(=O)[C@@H](NC(=O)[C@H](Cc2cnc[nH]2)NC(=O)[C@@H](NC(=O)[C@H](CC(N)=O)NC(=O)[C@H]2CCCN2C(=O)[C@H](CCCCN)NC(=O)[C@H](CO)NC(=O)[C@H](CCC(N)=O)NC(=O)[C@H](Cc2ccccc2)NC(C)=O)C(C)C)C(C)C)C(N)=O)C1=O` (stereo partly drawn), for which the remaining at 24 h worked out at 33.4%.

Take `CC(=O)N[C@@H](Cc1ccccc1)C(=O)N[C@@H](CCC(N)=O)C(=O)N[C@@H](CO)C(=O)N[C@@H](CCCCN)C(=O)N1CCC[C@@H]1C(=O)N[C@@H](CCCNC(=N)N)C(=O)N[C@H](C(=O)N[C@@H](Cc1cnc[nH]1)C(=O)N[C@H](C(=O)N[C@@H](CC(=O)O)C(=O)NCC(=O)N[C@@H](Cc1ccc(O)cc1)C(=O)N[C@@H](Cc1ccccc1)C(=O)N[C@@H](CCC(=O)O)C(=O)N[C@@H](CCCNC(=N)N)C(=O)N[C@@H](CC(C)C)C(=O)NC(C)(C)C(=O)N[C@@H](C)C(=O)N[C@@H](CCCCN)C(=O)N[C@@H](CC(C)C)C(N)=O)C(C)(C)C)C(C)C`: the remaining at 24 h was determined as 66.1%.

Regarding `CC(=O)N[C@@H](Cc1ccccc1)C(=O)N[C@@H](CCC(N)=O)C(=O)N[C@@H](CO)C(=O)N[C@@H](CCCCN)C(=O)N1CCC[C@@H]1C(=O)N[C@@H](CC(N)=O)C(=O)N[C@H](C(=O)N[C@@H](Cc1cnc[nH]1)C(=O)N[C@H](C(=O)N1CCC[C@H]1C(=O)N[C@@H]1CSSCC[C@@H](C(=O)N[C@@H](CCCNC(=N)N)C(=O)N[C@@H](CC(C)C)C(=O)NC(C)(C)C(=O)N[C@@H](C)C(=O)N[C@@H](CCCCN)C(=O)N[C@@H](CC(C)C)C(N)=O)NC(=O)[C@H](Cc2ccccc2)NC(=O)[C@H](Cc2ccc(O)cc2)NC1=O)C(C)C)C(C)C`, the remaining at 24 h came out at 40.7%.

In the case of `CCN1C(=O)CC(SC[C@H](NC(=O)[C@H](CC(C)C)NC(=O)[C@H](CCCCN)NC(=O)[C@H](C)NC(=O)C(C)(C)NC(=O)[C@H](CC(C)C)NC(=O)[C@H](CCCNC(=N)N)NC(=O)[C@H](CCC(=O)O)NC(=O)[C@H](Cc2ccccc2)NC(=O)[C@H](Cc2ccc(O)cc2)NC(=O)CNC(=O)[C@@H]2CCCN2C(=O)[C@@H](NC(=O)[C@H](Cc2cnc[nH]2)NC(=O)[C@@H](NC(=O)[C@H](CC(N)=O)NC(=O)[C@H]2CCCN2C(=O)[C@H](CCCCN)NC(=O)[C@H](CO)NC(=O)[C@H](CCC(N)=O)NC(=O)[C@H](Cc2ccccc2)NC(C)=O)C(C)C)C(C)(C)C)C(N)=O)C1=O` (stereo partly drawn), the remaining at 24 h stood at 55.9%.

As for `CCN1C(=O)CC(SC[C@H](NC(=O)[C@H](CC(C)C)NC(=O)[C@H](CCCCN)NC(=O)[C@H](C)NC(=O)C(C)(C)NC(=O)[C@H](CC(C)C)NC(=O)[C@H](CCCNC(=N)N)NC(=O)[C@H](CCC(=O)O)NC(=O)[C@H](Cc2ccccc2)NC(=O)[C@H](Cc2ccc(O)cc2)NC(=O)CNC(=O)[C@@H](NC(=O)[C@@H](NC(=O)[C@H](Cc2cnc[nH]2)NC(=O)[C@@H](NC(=O)[C@H](CC(N)=O)NC(=O)[C@H]2CCCN2C(=O)[C@H](CCCCN)NC(=O)[C@H](CO)NC(=O)[C@H](CCC(N)=O)NC(=O)[C@H](Cc2ccccc2)NC(C)=O)C(C)C)C(C)(C)C)[C@@H](C)O)C(N)=O)C1=O` (stereo partly drawn), the remaining at 24 h was 52.6%.

For another series, the target named is T1, Tissue factor pathway inhibitor (Homo sapiens, UniProt P10646).
T1 sequence (P10646 whole entry): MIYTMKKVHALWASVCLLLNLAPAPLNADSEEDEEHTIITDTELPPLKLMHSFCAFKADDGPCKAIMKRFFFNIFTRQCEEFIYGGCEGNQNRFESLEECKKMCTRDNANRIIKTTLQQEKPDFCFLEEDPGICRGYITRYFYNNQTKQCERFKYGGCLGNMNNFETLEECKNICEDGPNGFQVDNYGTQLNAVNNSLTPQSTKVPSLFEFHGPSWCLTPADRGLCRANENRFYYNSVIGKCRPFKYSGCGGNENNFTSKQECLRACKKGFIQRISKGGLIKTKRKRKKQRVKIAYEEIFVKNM
As to the kind of experiment: Binding affinity to TFPI (unknown origin) incubated for […] using tracer peptide JBT0131 by screening ELISA.
Details: not given
Background: An ELISA detects its analyte on a solid surface through an enzyme-linked reagent.
In the case of `CC(=O)N[C@@H](Cc1ccccc1)C(=O)N[C@@H](CCC(N)=O)C(=O)N[C@@H](CO)C(=O)N[C@@H](CCCCN)C(=O)NCC(=O)N[C@@H](CC(N)=O)C(=O)N[C@H](C(=O)NC(C)(C)C(=O)N[C@H](C(=O)N[C@@H](CC(=O)O)C(=O)NCC(=O)N[C@@H](Cc1ccc(O)cc1)C(=O)N[C@@H](Cc1ccccc1)C(=O)N[C@@H](CCC(=O)O)C(=O)N[C@@H](CCCNC(=N)N)C(=O)N[C@@H](CC(C)C)C(=O)NC(C)(C)C(=O)N[C@@H](C)C(=O)N[C@@H](CCCCN)C(=O)N[C@@H](CC(C)C)C(N)=O)C(C)C)C(C)C` (Ac-FQSKGNV[Aib]VDGYFERL[Aib]AKL-NH2), the half-maximal inhibitory concentration (IC50) (usually the point on the concentration scale where inhibition reaches its midpoint) is above 5 µM.

Turning to Ac-FQSKKNVFVFGDFERLRAKL-NH2, the concentration for half-maximal inhibition (IC50) is above 5 µM.

As for Ac-FQSKKNVFVFGFFERLRAKL-NH2, the IC50 is above 5 µM.

The molecule Ac-FQSKHHVFVDGYFERLCAKL-NH2 registered an IC50 below 0.05 µM.

Molecule Ac-FQSKKNVFVFGYFERLRAFL-NH2 displayed an IC50 above 5 µM.

The molecule Ac-FQSKKNDFVFGYFERLRAKL-NH2 displayed an IC50 above 5 µM.

Ac-FQSKKNVFVFGYFEFLRAKL-NH2: the 50% inhibitory concentration (IC50) was above 5 µM.

As to Ac-FLSKKNVFVFGYFERLRAKL-NH2, the IC50 fell in the range of 1 to 5 µM.

Ac-FQSKGNVFVDGYFERLRMKL-NH2 displayed an IC50 below 0.05 µM.

Molecule Ac-FQSKGNVFVDGYFERLRRKL-NH2 gave a concentration for half-maximal inhibition (IC50) below 0.05 µM.

As for Ac-FQLKKNVFVFGYFERLRAKL-NH2, the IC50 was above 5 µM.

For the molecule Ac-FQSKKNVFVFFYFERLRAKL-NH2, the IC50 is above 1.67 µM.

In turn, Ac-FFSKKNVFVFGYFERLRAKL-NH2 registered an IC50 above 5 µM.

As for Ac-FQSKKNVFVFGGFERLRAKL-NH2, the IC50 is above 5 µM.

Ac-FQSDKNVFVFGYFERLRAKL-NH2 had an IC50 above 5 µM.

Molecule Ac-FQSFKNVFVFGYFERLRAKL-NH2 registered an IC50 above 5 µM.

In turn, `CC(=O)N[C@@H](Cc1ccccc1)C(=O)N[C@@H](CCC(N)=O)C(=O)N[C@@H](CO)C(=O)N[C@@H](CCCCN)C(=O)NCC(=O)N[C@@H](CC(N)=O)C(=O)N[C@H](C(=O)N[C@@H](Cc1ccccc1)C(=O)N[C@H](C(=O)N[C@@H](CC(=O)O)C(=O)NCC(=O)NC(C)(C)C(=O)NC(C)(C)C(=O)N[C@@H](C)C(=O)N[C@@H](CCCCN)C(=O)N[C@@H](CC(C)C)C(N)=O)C(C)C)C(C)C` (Ac-FQSKGNVFVDG[Aib][Aib]AKL-NH2) displayed a half-inhibitory concentration (IC50) above 5 µM.

Source of the values: ChEMBL document CHEMBL4420062, “Tfpi inhibitors and methods of use” (2013).
